Assay results taken from patent publication US9314521B2, “Adjuvant compound” (ISA Pharmaceuticals B.V., priority 2011, dated 2016).
Non-standard residues stand in square brackets, D forms with d. No end group written: not given here. *: point of attachment. Cys((RS)-2,3-di(palmitoyloxy)-propyl) = Cys S-substituted with (RS)-2,3-di(palmitoyloxy)-propyl (dipalmitoyl-glyceryl); X1 = (RS)‑2,3‑di(palmitoyloxy)‑propyl, CCCCCCCCCCCCCCCC(=O)OCC(C*)OC(=O)CCCCCCCCCCCCCCC; 1‑tetradecyl‑urea = N-terminal tetradecyl-urea lipid group, CCCCCCCCCCCCCCNC(=O)*; Abu = CC[C@H](N)C(=O)O

What was measured:
DC = experiment: UPam variants: up-regulation of cell surface markers CD40, CD86 and MHC Class II (DC maturation); format: cell-based; conditions: 3 μM and 30 nM
Description: The UPam variants wherein Xn was varied were compared by measuring IL-12 production and the up-regulation of the cell surface markers CD40, CD86 and MHC Class II at 3 μM and 30 nM. Herein, Xn takes the place of serine in the SK4 (SEQ ID NO: 18) peptide part according to formula (2), containing different groups for R^5. Compounds X1 up to X8 containing these different groups R^5, which were studied are listed in the table below, wherein X1 is the UPam-14 as prepared in Example 1 and X2 is the UPam-14-Abu as prepared in Example 3. The potency of the compounds to upregulate CD40 followed the trend as observed in the DC maturation assay. […] In the up-regulation of the cell surface marker CD86 and MHC class II a corroborated trend was observed.

murine DC cell line = experiment: DC maturation: cell surface marker expression in murine DC cell line by FACS (FIG. 4); format: cell-based; conditions: 30 nM, 48 hours, compared to Pam3CSK4
Description: The DCs were subsequently stained with antibodies directed against CD40, CD86 and MHC class II molecules. Mean fluorescence intensity was determined FACS analysis.

[1] = test system: murine dendritic cell line; experiment: activation of murine dendritic cell line, IL-12 ELISA; format: cell-based; conditions: 24 hours, titrating concentrations
Description: The two compounds U-Pam-12 and U-Pam-14 as obtained in Example 1 were tested in comparison to unmodified Pam3CysSK4 (SEQ ID NO: 11) for their functional capacity to activate a human TLR2 expressing reporter cell line HEK-TLR2 (FIG. 3A) and a murine dendritic cell line (FIG. 3B).
In the test live TLR2-transfected HEK cells and dendritic cells (5×10^4 cells/well) were incubated with titrating concentrations of the respective Pam compounds in culture medium and incubated at 37° C. After 24 hours, supernatants were harvested and the presence of IL-8 or IL-12 cytokines respectively, was measured by specific sandwich ELISA assays.

[2] = test system: human monocyte-derived dendritic cells (moDC); experiment: activation of human monocyte-derived dendritic cells (moDC): IL12p40, IL12p70 ELISA and CD86 staining (FIG. 5); format: cell-based; conditions: 48 hours of incubation, compared to Pam3CSK4 or Pam-SLP
Description: On day 5 of culturing the CD 14±fraction of donor PBMC in growth medium with IL-4 and GM-CSF, these moDC were incubated with either wt Pam3CSK4 (SEQ ID NO: 11), U-Pam14, Pam3CSK4 (SEQ ID NO: 11)-conjugated or U-Pam14-conjugated synthetic long peptide (Pam-SLP or uPam14-SLP), or left unstimulated. After 48 hours of incubation, the supernatant of the moDC cultures was taken, which was subjected to IL12p40 (FIG. 5A) and IL12p70 (FIG. 5B) ELISA analysis. After 48 hours of incubation, the moDCs were stained with antibodies directed against CD86 (FIG. 5C).

cellular immune response = conditions: mice; Vaccine 22 (2004) 2494-2499; cited from earlier work

Substance | up-regulation of CD40 compared to Pam3Cys-SK4 (DC) | expression of cell surface molecules CD40, CD86 and MHC class II (mean fluorescence intensity) (murine DC cell line) | stimulation (IL-12 cytokine production) compared to unmodified Pam3CysSK4 [1] | activation of human dendritic cells (IL12p40, IL12p70, CD86) [2] | additive for eliciting a cellular immune response (cellular immune response)
1-tetradecyl-urea-Cys((RS)-2,3-di(palmitoyloxy)-propyl)-Abu-Lys-Lys-Lys-Lys-NH2 ({1‑tetradecyl‑urea-Cys((RS)-2,3-di(palmitoyloxy)-propyl)}-[Abu]KKKK-NH2) [Upam-14-Abu] | increased amount of up-regulation | – | – | – | –
1-tetradecyl-urea-Cys((RS)-2,3-di(palmitoyloxy)-propyl)-Ser-Lys-Lys-Lys-Lys-NH2 ({1‑tetradecyl‑urea}-C(X1)SKKKK-NH2; SMILES CCCCCCCCCCCCCCCC(=O)OCC(CSC[C@H](NC(=O)NCCCCCCCCCCCCCC)C(=O)N[C@@H](CO)C(=O)N[C@@H](CCCCN)C(=O)N[C@@H](CCCCN)C(=O)N[C@@H](CCCCN)C(=O)N[C@@H](CCCCN)C(N)=O)OC(=O)CCCCCCCCCCCCCCC) [U-Pam-14] | increased amount of up-regulation | superior to wt Pam | superior to wt Pam | improves activation of human dendritic cells | –
Pam3Cys-SK4: established TLR2/TLR1 ligand, state of the art lipopeptide adjuvant (SEQ ID NO: 11) (CSKKKK; not fully specified (residue 1, N-terminus)) | – | – | – | – | most effective additive
